# According to patent US20240180932A1, “S[…] COMPOUNDS IN THE MANAGEMENT OF AGEING AND RELATED DISORDERS” (SOCIETE DES PRODUITS NESTLE S.A., priority 2021, published 2024):
# Legend:
# [1] = test system: AMPKα2 knockout C. elegans (aak-2); assay: Lifespan of AMPKα2 knockout C. elegans (aak-2); format: in vivo; design: Mean lifespan / Maximum lifespan: unit not given here
# Method: FIG. 3. […] 60-70 synchronized day 1 adult aak-2 animals were loaded in each Infinity chip and treated with 0.5 μM or 10 μM of Compound 1, throughout life, and with fresh doses of OP50 bacteria (20 mg/ml) at 20 C, each day. Note that the control is the no drug treated population (0.2% v/v DMSO liquid NGM). […] Each day, at the same time, death scores were determined and three independent trials were conducted, with two technical replicates per trial.
# We tested the ability of Compound 1 to extend lifespan in C elegans which have the AMP-activated protein kinase (AMPK) α2 subunit isoform deletion. This mutant strain (aak-2) is commonly used in lifespan studies to look at the dependence on activation of AMPK for mediating the lifespan and other effects of various compounds.
# [2] = test system: WT C. elegans; assay: Thermotolerance of C. elegans after a heat-shock of 37 C for 4 hours (survival, microfluidic Infinity System); format: in vivo; conditions: 48 hrs treatment
# Method: FIG. 1. Compound 1 improves the thermotolerance of C. elegans, after a 37 C heat-shock. Day 1 adults were treated with 4 different concentrations of Compound 1 for 48 hrs at 20 C. Control is the no-drug-treated population. All compound solutions were made in NGM with 0.2% v/v DMSO, and the bacterial food source (20 mg/mL E. coli OP50). After 48 hrs of Compound 1 treatment, animals were exposed to 37 C for 4 hours and allowed to recover for 15 mins following which death scores were determined using the microfluidic Infinity System. One-way ANOVA test was used to compare the response from different doses. Multiple comparison test was conducted for pairwise comparison to identify the dosages which provide thermotolerance benefit.
# It has been reported that exposing C. elegans to high temperatures increases the molecular stress and reduces animal lifespan. […] Importantly, this has been used to screen and evaluate the effectiveness of anti-ageing compounds. We monitored the survival of C. elegans after a thermal stress to determine whether Compound 1 could improve the ageing of these animals and at what concentrations this may occur. […] To achieve this, worms were maintained at their normal temperature (20 C) and then treated for 48-hour incubation with Compound 1 starting on adult day 1, followed by 4-hour heat challenge at 37 C, followed by 15 mins recovery and then death was recorded.
# [3] = test system: C. elegans; assay: Mobility of C. elegans (highly active, moderately active, inactive cohorts); format: in vivo; conditions: for Effect on percentage of highly active animals: Days 5, 8, 12, 15
# Method: FIG. 4. […] To measure locomotory health related parameters the same video recordings that were captured for live/dead scoring were analyzed. The movements of the individual animals were tracked and animals were grouped into cohorts of different activity. This was achieved by determining how much of the animal body moved in a boundary box that encompasses it, in a duration of 30 seconds.
# FIG. 5. […] The movements of the individual animals were tracked and animals were grouped into cohorts of different activity. This was achieved by determining how much of the animal body moved in a boundary box that encompasses it, in a duration of 30 seconds.
# FIG. 6. […] The movements of the individual animals were tracked and animals were grouped into cohorts of different activity. This was achieved by determining how much of the animal body moved in a boundary box that encompasses it, in a duration of 30 seconds.
# It is possible to measure the mobility of C. elegans and monitor this throughout the lifespan of the worms. As with many species, C. elegans display an age-related decline in mobility. […] Therefore, we tested whether Compound 1 could improve the mobility of C. elegans throughout their lifespan. To measure locomotory health related parameters the same video recordings that were captured for live/dead scoring were analyzed using the Infinity Code. The movements of the individual animals were tracked and animals were grouped into cohorts of different activity. The cohort analysis involved determining how much of the animal body moved in the boundary box that encompasses it, in a duration of 30 seconds.
# [4] = test system: wild-type C. elegans; assay: Lifespan of wild-type C. elegans (microfluidic Infinity System); format: in vivo; design: Mean lifespan / Maximum lifespan: unit not given here
# Method: FIG. 2. 10 μM Compound 1 extends the mean and maximum lifespan of C. elegans. 60-70 synchronized day 1 adult animals were loaded in each Infinity chip and treated with 0.5 μM or 10 μM of Compound 1, throughout life, and with fresh doses of OP50 bacteria (20 mg/ml) at 20 C, each day. Note that the control is the no drug treated population (0.2% v/v DMSO liquid NGM). […] Each day, at the same time, death scores were determined and three independent trials were conducted, with two technical replicates per trial.
# To determine whether Compound 1 can extend lifespan, C. elegans were treated with 0.5 μM or 10 μM Compound 1 from day 1 of adulthood. The microfluidic Infinity System was used to assess the lifespan of Compound 1-treated and non-treated control worms. 60-70 synchronized day 1 adult animals were loaded in each Infinity chip and treated with 0.5 μM or 10 μM of Compound 1, lifelong, with daily fresh doses of 20 mg/mL of OP50 bacteria at 20 C. Control is the no-drug-treated population, maintained in 0.2% v/v DMSO liquid NGM. […] Each day, at the same time death scores were determined using the Infinity Code. Three independent trials with two technical replicates per trial were conducted.
# [5] = test system: Zebrafish larvae; assay: Autophagy induction in Zebrafish larvae (LC3-ZsGreen reporter, LC3 punctae); format: in vivo; conditions: 0.25, 0.5, 1 and 2.5 μM
# Method: FIG. 7. Compound 1 increases autophagy in Zebrafish larvae. An autophagy reporter zebrafish line was generated by stable expression of the LC3 protein fused to ZsGreen under the control of a skeletal muscle specific promoter. Larvae from outcrossed transgenic zebrafish were raised at 28 C under standard laboratory conditions and have been treated at 48 h post-fertilization in 96 well plates with varying concentrations of Compound 1 at different concentrations as indicated in the figure. After 16 hours of treatment larvae were anesthetized with 0.016% tricaine and imaged with ImageXpress confocal system at 20× magnification (Molecular Devices). Z stack images were captured for each larva and maximal projection images were produced. Ammonium chloride (final concentration 100 mM) was added for an additional 4 h to block lysosomal degradation. Images were acquired again as before. In order to quantify autophagic flux, number of LC3 punctae have been calculated in presence and in absence of ammonium chloride with MetaXpress software (Molecular Devices) and normalized by zebrafish area.
# [6] = Solubility in water-based solutions; format: physicochemical
# [7] = aak-2, 0.5 μM, Pooled Trials 1 to 3
# [8] = aak-2, 10 μM, Pooled Trials 1 to 3
structure (smiles),measurement,setting,value
"C=C(C)[C@@H]1CCC(C)=C[C@H]1c1c(O)cc(CCCCC)c(C(=O)O)c1O [Compound 1, Cannabidiolic acid]",ability to extend lifespan in aak-2 worms,"[1]; aak-2, 0.5 μM or 10 μM",completely lost
same,% lifespan extension,[1]; [7],−1.2%
same,Maximum lifespan,[1]; [7],26
same,Mean lifespan,[1]; [7],15.9 ± 4.2
same,% lifespan extension,"[1]; aak-2, 0.5 μM, Trial 1",0%
same,Maximum lifespan,"[1]; aak-2, 0.5 μM, Trial 1",25
same,Mean lifespan,"[1]; aak-2, 0.5 μM, Trial 1",16.0 ± 4.2
same,% lifespan extension,"[1]; aak-2, 0.5 μM, Trial 2",−4.7%
same,Maximum lifespan,"[1]; aak-2, 0.5 μM, Trial 2",26
same,Mean lifespan,"[1]; aak-2, 0.5 μM, Trial 2",16.1 ± 4.0
same,% lifespan extension,"[1]; aak-2, 0.5 μM, Trial 3",−3.7%
same,Maximum lifespan,"[1]; aak-2, 0.5 μM, Trial 3",25
same,Mean lifespan,"[1]; aak-2, 0.5 μM, Trial 3",15.6 ± 4.4
same,% lifespan extension,[1]; [8],0%
same,Maximum lifespan,[1]; [8],26
same,Mean lifespan,[1]; [8],16.1 ± 4.2
same,% lifespan extension,"[1]; aak-2, 10 μM, Trial 1",−7.5%
same,Maximum lifespan,"[1]; aak-2, 10 μM, Trial 1",23
same,Mean lifespan,"[1]; aak-2, 10 μM, Trial 1",14.9 ± 3.8
same,% lifespan extension,"[1]; aak-2, 10 μM, Trial 2",−4.1%
same,Maximum lifespan,"[1]; aak-2, 10 μM, Trial 2",26
same,Mean lifespan,"[1]; aak-2, 10 μM, Trial 2",16.2 ± 4.7
same,% lifespan extension,"[1]; aak-2, 10 μM, Trial 3",3.8%
same,Maximum lifespan,"[1]; aak-2, 10 μM, Trial 3",24
same,Mean lifespan,"[1]; aak-2, 10 μM, Trial 3",16.8 ± 3.5
same,Survival after heat shock,[2]; 0.5 μM,small improvement in survival
same,Survival after heat shock,[2]; concentrations above 0.5 μM,almost a complete prevention of C. elegans death
same,Effect on percentage of highly active animals,[3]; 0.5 μM,increases the percentage of highly active animals at Day 8 only
same,Effect on moderately active worms,"[3]; 0.5 μM, days 14 to 20",increases the number of moderately active worms
same,Effect on proportion of inactive worms,"[3]; 0.5 μM, days 14 to 20",decreases the proportion of inactive worms
same,Effect on percentage of highly active animals,[3]; 10 μM,"increases the percentage of highly active animals at Days 8, 12 and 15"
same,Effect on proportion of highly active worms,"[3]; 10 μM, days 14 and 20",increases the proportion of highly active worms
same,Effect on proportion of inactive worms,"[3]; 10 μM, days 14 and 20",decreases the proportion of inactive worms
same,Mean % of Highly Active animals,"[3]; Day 5, 0.5 μM",83.7%
same,Mean % of Highly Active animals,"[3]; Day 5, 10 μM",89.3%
same,Mean % of Highly Active animals,"[3]; Day 8, 0.5 μM",75.7%
same,Mean % of Highly Active animals,"[3]; Day 8, 10 μM",78.1%
same,Mean % of Highly Active animals,"[3]; Day 12, 0.5 μM",45.2%
same,Mean % of Highly Active animals,"[3]; Day 12, 10 μM",49.7%
same,Mean % of Highly Active animals,"[3]; Day 15, 0.5 μM",18.3%
same,Mean % of Highly Active animals,"[3]; Day 15, 10 μM",23.7%
same,% lifespan extension,"[4]; 0.5 μM, Pooled Trials 1 to 3",1.3%
same,Maximum lifespan,"[4]; 0.5 μM, Pooled Trials 1 to 3",26
same,Mean lifespan,"[4]; 0.5 μM, Pooled Trials 1 to 3",15.3 ± 5.4
same,% lifespan extension,"[4]; 0.5 μM, Trial 1",4.4%
same,Maximum lifespan,"[4]; 0.5 μM, Trial 1",25
same,Mean lifespan,"[4]; 0.5 μM, Trial 1",16.6 ± 5.8
same,% lifespan extension,"[4]; 0.5 μM, Trial 2",0%
same,Maximum lifespan,"[4]; 0.5 μM, Trial 2",26
same,Mean lifespan,"[4]; 0.5 μM, Trial 2",15.2 ± 5.7
same,% lifespan extension,"[4]; 0.5 μM, Trial 3",0%
same,Maximum lifespan,"[4]; 0.5 μM, Trial 3",26
same,Mean lifespan,"[4]; 0.5 μM, Trial 3",15.0 ± 5.4
same,Effect on mean and maximum lifespan,[4]; 10 μM,significantly extended mean and maximum lifespan
same,maximum lifespan extension,[4]; 10 μM,2 days
same,mean lifespan extension,[4]; 10 μM,around 11%
same,% lifespan extension,"[4]; 10 μM, Pooled Trials 1 to 3",11.3%
same,Maximum lifespan,"[4]; 10 μM, Pooled Trials 1 to 3",27
same,Mean lifespan,"[4]; 10 μM, Pooled Trials 1 to 3",16.8 ± 5.6
same,% lifespan extension,"[4]; 10 μM, Trial 1",10%
same,Maximum lifespan,"[4]; 10 μM, Trial 1",27
same,Mean lifespan,"[4]; 10 μM, Trial 1",17.5 ± 5.8
same,% lifespan extension,"[4]; 10 μM, Trial 2",11.8%
same,Maximum lifespan,"[4]; 10 μM, Trial 2",27
same,Mean lifespan,"[4]; 10 μM, Trial 2",17.1 ± 5.9
same,% lifespan extension,"[4]; 10 μM, Trial 3",25%
same,Maximum lifespan,"[4]; 10 μM, Trial 3",26
same,Mean lifespan,"[4]; 10 μM, Trial 3",18.8 ± 6.0
same,Autophagy (LC3),"[5]; 16 hours, without NH4Cl",dose-dependent increase in autophagy
same,Autophagy (LC3),[5]; in the presence of NH4Cl,dose-dependent increase in autophagy
same,Solubility,[6],low solubility in water-based solutions
